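The compound was tested at five concentrations on cells cultured in 96-well plates, with a 48-hour exposure period. TGI: concentration producing complete growth inhibition.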
What was measured:
Assay in all cases: NCI tumour cell line growth inhibition, 48 h
COLO 205 colon = test system: COLO 205 colon
HL-60(TB) leukemia = test system: HL-60(TB) leukemia
HT29 colon = test system: HT29 colon
LOX IMVI melanoma = test system: LOX IMVI melanoma
MDA-MB-435 = test system: MDA-MB-435
OVCAR-4 ovarian = test system: OVCAR-4 ovarian
RPMI-8226 leukemia = test system: RPMI-8226 leukemia
RXF 393 renal = test system: RXF 393 renal
SK-OV-3 ovarian = test system: SK-OV-3 ovarian
TK-10 renal = test system: TK-10 renal

SMILES | TGI (COLO 205 colon) | TGI (HL-60(TB) leukemia) | TGI (HT29 colon) | TGI (LOX IMVI melanoma) | TGI (MDA-MB-435) | TGI (OVCAR-4 ovarian) | TGI (RPMI-8226 leukemia) | TGI (RXF 393 renal) | TGI (SK-OV-3 ovarian) | TGI (TK-10 renal)
CC1=C(/C=C/C(C)=C/C=C/C(C)=C/C(=O)OCC2OC(n3cc(F)c(=O)[nH]c3=O)CC2OC(=O)/C=C(C)/C=C/C=C(C)/C=C/C2=C(C)CCCC2(C)C)C(C)(C)CCC1 (stereo not given) | > 60.1 µM | > 41.9 µM | > 100 µM | 25.8 µM | > 65.8 µM | > 81.8 µM | 42.6 µM | > 100 µM | > 100 µM | > 58.4 µM
c1ccc(N=C2c3ccccc3CN2c2ccccc2)cc1 | > 100 µM | > 100 µM | > 100 µM | > 100 µM | > 100 µM | > 100 µM | > 100 µM | > 100 µM | > 100 µM | > 100 µM
Clc1ccc(N=C/C=C/Nc2ccc(Cl)cn2)nc1 | 25.3 µM | 3.91 µM | 22.1 µM | 19.8 µM | 27.6 µM | 25.7 µM | 37.1 µM | 34.9 µM | 36.6 µM | 34.9 µM
CCOC(=O)/C(C#N)=C/c1ccc2c(-c3c(OCC)ccc4cc(/C=C(\C#N)C(=O)OCC)ccc34)c(OCC)ccc2c1 | > 100 µM | > 100 µM | > 100 µM | > 100 µM | > 100 µM | > 100 µM | > 100 µM | > 100 µM | > 100 µM | > 100 µM
CC(C)(C)OC(=O)[N+](=N)C(=O)C1CCC(=O)N1C(=O)OCc1ccccc1 (stereo not given) | > 100 µM | > 100 µM | > 100 µM | > 100 µM | > 100 µM | > 100 µM | > 100 µM | > 100 µM | > 100 µM | > 100 µM
CC(=O)N=C(N=Nc1c(O)[nH]c2ccc(C)cc12)NC(C)=O | > 100 µM | > 100 µM | > 100 µM | > 100 µM | > 100 µM | > 100 µM | > 100 µM | > 100 µM | > 100 µM | > 100 µM
COc1cc(NS(C)(=O)=O)ccc1NCc1cnc2ccc3[nH]c(C)ccc3c12 | > 100 µM | 34.9 µM | > 100 µM | > 100 µM | 80.4 µM | > 100 µM | 45.2 µM | 39.5 µM | > 100 µM | > 100 µM
COc1c2c(c(OC)c3c1c(=O)c1ccccc1n3C)OCO2 | 53.9 µM | > 25.6 µM | > 100 µM | > 100 µM | 6.46 µM | > 100 µM | > 100 µM | > 100 µM | > 100 µM | > 100 µM
CN(C1=NCCO1)c1cccc2ccccc12 | > 10 µM | > 10 µM | > 10 µM | > 10 µM | > 10 µM | > 10 µM | > 10 µM | > 10 µM | > 10 µM | > 10 µM
Brc1cccc(/C=C/CN2CCN(CCOC(c3ccccc3)c3ccccc3)CC2)c1 | 36.2 µM | 27.9 µM | 24.2 µM | 27.6 µM | 25.2 µM | 25.2 µM | 19.4 µM | 24.6 µM | 34.9 µM | 33.9 µM
CNC(=S)/C(=N\Nc1nc[nH]c1C(N)=O)C(N)=S | 41.1 µM | 7.83 µM | > 100 µM | > 37.9 µM | > 100 µM | > 100 µM | 55.7 µM | > 100 µM | > 31.6 µM | > 57.5 µM
O=c1c2ccccc2nc2n1NC(c1c(Cl)cccc1Cl)N2c1cccc(Cl)c1 (stereo not given) | > 100 µM | > 100 µM | > 100 µM | > 100 µM | > 100 µM | 6.73 µM | > 100 µM | 18.5 µM | 6.81 µM | 21.8 µM
CCOc1c2ccsc2c(OCC)c2ccsc12 | > 41.1 µM | 7.43 µM | > 36 µM | 23 µM | 3.15 µM | > 100 µM | > 100 µM | > 24.2 µM | > 100 µM | > 100 µM
COc1ccc(OC)c(C2CCc3nc4nc(N)nc(N)c4cc3C2)c1 (stereo not given) | 17.9 µM | 7.86 µM | 10.8 µM | 8.14 µM | 4.09 µM | 4.14 µM | 19 µM | 7.45 µM | 15.3 µM | 23.6 µM
Cc1c(N2C(=O)/C(=C/C=C/c3ccccc3)N=C2c2ccccc2)c(=O)n(-c2ccccc2)n1C | 30.3 µM | 35.7 µM | 54 µM | 52 µM | 33.1 µM | 50.3 µM | 47.6 µM | 33.2 µM | 66.9 µM | > 100 µM
C=C(O)c1ccccc1C#Cc1ccccc1C(=O)OC | > 10 µM | > 10 µM | > 10 µM | > 10 µM | > 10 µM | > 10 µM | > 10 µM | > 10 µM | > 10 µM | > 10 µM
CNc1ncnc(Sc2nc(N)nc3nc[nH]c23)c1[N+](=O)[O-] | 5.53 µM | 6.7 µM | > 49.5 µM | 12.2 µM | 12 µM | 18.7 µM | 1.79 µM | 8.06 µM | > 100 µM | 0.941 µM
Cc1ccc(Nc2nc(=S)[nH]c3[nH]ncc23)cc1 | > 100 µM | > 100 µM | > 100 µM | > 100 µM | > 100 µM | > 100 µM | > 100 µM | > 100 µM | > 100 µM | > 100 µM
OC1(c2ccccc2)CC2CCC(C1)N2CCc1ccccc1 (stereo not given) | 35.7 µM | > 100 µM | 79.3 µM | > 100 µM | > 100 µM | > 100 µM | > 100 µM | > 100 µM | > 100 µM | > 100 µM
Cc1cc2nc3n[nH]c(N)c3nc2cc1C | > 100 µM | > 100 µM | > 100 µM | > 100 µM | > 100 µM | > 100 µM | > 100 µM | > 100 µM | > 100 µM | > 100 µM
C/C(=N/NC(=S)Nc1ccccc1Cl)c1ccccn1 | 2.54 µM | < 0.0305 µM | 24.7 µM | 16 µM | 17.1 µM | 14.5 µM | 47.3 µM | 11.6 µM | 13.7 µM | 17.1 µM
CN(C)c1nc(N(C)C)nc(N(C)C)n1 | > 150 µM | > 148 µM | > 150 µM | > 150 µM | > 150 µM | > 143 µM | > 150 µM | > 150 µM | > 150 µM | > 150 µM
CC/C(=N\NC(=O)c1cccnc1)c1ccc2c(c1)OCCO2 | > 100 µM | > 100 µM | > 100 µM | > 100 µM | > 100 µM | > 100 µM | > 100 µM | > 100 µM | > 100 µM | > 100 µM
O=C(c1ccccc1)c1ccc(C(c2c(O)c3ccccc3oc2=O)c2c(O)c3ccccc3oc2=O)cc1 | > 73 µM | > 100 µM | > 63.5 µM | > 100 µM | > 74.2 µM | 82.9 µM | 60.9 µM | > 69.2 µM | 38.4 µM | 36.7 µM
